#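 Assay format: 96-well plates, 48-hour exposure. At the TGI there is no net growth.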
# Tested on: SK-MEL-5 melanoma
# Experiment: NCI anticancer screen, dose series, 48 h
row,Structure (SMILES),TGI [µM]
1,O=C1c2cc3c(cc2CC12Cc1cc4c(cc1C2=O)CCC4)CCCC3 (configuration not stated),> 100
2,COc1ccc2c(c1C)C(=O)C(O)(CC=C(C)C)O2 (configuration not stated),> 100
3,Cc1cccc2c1[C@]13OC(C)[C@]4(C)CC5OC(=O)[C@@]1(C)[C@@H]5[C@]34C(=O)O2 (some centres not stated),> 100
4,CCN(CC)/C(Cl)=C(Cl)\C(=C1\Nc2ccc(OC)cc21)[N+](=O)[O-],> 100

# Tested on: OVCAR-8 ovarian
# Experiment: NCI anticancer screen, dose series, 48 h
row,Structure (SMILES),TGI [µM]
1,COc1ccc(CCNC2=CC(=O)c3ncccc3C2=O)cc1OC,17.2
2,CN(C)C1=Nc2ccccc2C(=S)N2CSCC12 (configuration not stated),> 100
3,CC1(C)OCC2OC3(c4nc(C#N)c(N)o4)OC(C)(C)OC3C2O1 (configuration not stated),> 100
4,CCC1OC2C(CC=C(C)C)=C3OC(C)(O)C(C)(CC)C(OC(=O)c4ccccc4)C3=C3OC(=O)C=C1C32 (configuration not stated),> 100
5,COn1cc(C=O)c2ccccc21,> 100
6,C=CCNC1=C2C[C@@H](C)C[C@@H](OC)[C@@H](OC(=O)CCCN)[C@H](C)/C=C(\C)[C@@H](OC(N)=O)[C@H](OC)/C=C\C=C(/C)C(=O)NC(=CC1=O)C2=O,42.5
7,O=C1NC(=O)C(c2c[nH]c3cc(Br)ccc23)=C1c1cn(C(c2ccccc2)(c2ccccc2)c2ccccc2)cn1,36.5
8,CC(C)=CCS(=O)c1ccccc1NC1=CC(=O)CC(C)(C)C1 (configuration not stated),> 100
9,O=C(O)c1nc(-c2ccccn2)c(-c2ccccn2)nc1C(=O)O,21.2
10,COC1=C(Br)[C@H](O)[C@@]2(C=C1Br)CC(C(=O)NCCCCCN=C(N)N)=NO2,> 10
11,COc1cc(/C=C2\C[C@H]3[C@@H]4CC=C5C[C@@H](O)CC[C@]5(C)[C@H]4CC[C@]3(C)C2=O)cc(OC)c1OC,> 100
12,C#CCn1ncc2c(SCc3ccccc3)ncnc21,> 100
13,O=C1c2cc3c(cc2CC12Cc1cc4c(cc1C2=O)CCC4)CCCC3 (configuration not stated),> 100
14,COc1ccc2c(c1C)C(=O)C(O)(CC=C(C)C)O2 (configuration not stated),> 100
15,Cc1cccc2c1[C@]13OC(C)[C@]4(C)CC5OC(=O)[C@@]1(C)[C@@H]5[C@]34C(=O)O2 (some centres not stated),> 100
16,CCN(CC)/C(Cl)=C(Cl)\C(=C1\Nc2ccc(OC)cc21)[N+](=O)[O-],> 100

# Tested on: ACHN renal
# Experiment: NCI anticancer screen, dose series, 48 h
row,Structure (SMILES),TGI [µM]
1,COc1ccc(CCNC2=CC(=O)c3ncccc3C2=O)cc1OC,19.8
2,CN(C)C1=Nc2ccccc2C(=S)N2CSCC12 (configuration not stated),> 100
3,CC1(C)OCC2OC3(c4nc(C#N)c(N)o4)OC(C)(C)OC3C2O1 (configuration not stated),> 100
4,CCC1OC2C(CC=C(C)C)=C3OC(C)(O)C(C)(CC)C(OC(=O)c4ccccc4)C3=C3OC(=O)C=C1C32 (configuration not stated),> 100
5,COn1cc(C=O)c2ccccc21,> 100
6,C=CCNC1=C2C[C@@H](C)C[C@@H](OC)[C@@H](OC(=O)CCCN)[C@H](C)/C=C(\C)[C@@H](OC(N)=O)[C@H](OC)/C=C\C=C(/C)C(=O)NC(=CC1=O)C2=O,38.9
7,O=C1NC(=O)C(c2c[nH]c3cc(Br)ccc23)=C1c1cn(C(c2ccccc2)(c2ccccc2)c2ccccc2)cn1,> 100
8,CC(C)=CCS(=O)c1ccccc1NC1=CC(=O)CC(C)(C)C1 (configuration not stated),> 100
9,O=C(O)c1nc(-c2ccccn2)c(-c2ccccn2)nc1C(=O)O,7.35
10,COC1=C(Br)[C@H](O)[C@@]2(C=C1Br)CC(C(=O)NCCCCCN=C(N)N)=NO2,> 10
11,COc1cc(/C=C2\C[C@H]3[C@@H]4CC=C5C[C@@H](O)CC[C@]5(C)[C@H]4CC[C@]3(C)C2=O)cc(OC)c1OC,> 100
12,C#CCn1ncc2c(SCc3ccccc3)ncnc21,> 100
13,O=C1c2cc3c(cc2CC12Cc1cc4c(cc1C2=O)CCC4)CCCC3 (configuration not stated),> 100
14,COc1ccc2c(c1C)C(=O)C(O)(CC=C(C)C)O2 (configuration not stated),> 100
15,Cc1cccc2c1[C@]13OC(C)[C@]4(C)CC5OC(=O)[C@@]1(C)[C@@H]5[C@]34C(=O)O2 (some centres not stated),> 100
16,CCN(CC)/C(Cl)=C(Cl)\C(=C1\Nc2ccc(OC)cc21)[N+](=O)[O-],> 100

# Tested on: HCT-15 colon
# Experiment: NCI anticancer screen, dose series, 48 h
row,Structure (SMILES),TGI [µM]
1,COc1ccc(CCNC2=CC(=O)c3ncccc3C2=O)cc1OC,5.09
2,CN(C)C1=Nc2ccccc2C(=S)N2CSCC12 (configuration not stated),> 100
3,CC1(C)OCC2OC3(c4nc(C#N)c(N)o4)OC(C)(C)OC3C2O1 (configuration not stated),> 100
4,CCC1OC2C(CC=C(C)C)=C3OC(C)(O)C(C)(CC)C(OC(=O)c4ccccc4)C3=C3OC(=O)C=C1C32 (configuration not stated),> 100
5,COn1cc(C=O)c2ccccc21,> 100
6,C=CCNC1=C2C[C@@H](C)C[C@@H](OC)[C@@H](OC(=O)CCCN)[C@H](C)/C=C(\C)[C@@H](OC(N)=O)[C@H](OC)/C=C\C=C(/C)C(=O)NC(=CC1=O)C2=O,41.2
7,O=C1NC(=O)C(c2c[nH]c3cc(Br)ccc23)=C1c1cn(C(c2ccccc2)(c2ccccc2)c2ccccc2)cn1,37.6
8,CC(C)=CCS(=O)c1ccccc1NC1=CC(=O)CC(C)(C)C1 (configuration not stated),28.7
9,O=C(O)c1nc(-c2ccccn2)c(-c2ccccn2)nc1C(=O)O,> 42.5
10,COC1=C(Br)[C@H](O)[C@@]2(C=C1Br)CC(C(=O)NCCCCCN=C(N)N)=NO2,> 10
11,COc1cc(/C=C2\C[C@H]3[C@@H]4CC=C5C[C@@H](O)CC[C@]5(C)[C@H]4CC[C@]3(C)C2=O)cc(OC)c1OC,> 100
12,C#CCn1ncc2c(SCc3ccccc3)ncnc21,> 100
13,O=C1c2cc3c(cc2CC12Cc1cc4c(cc1C2=O)CCC4)CCCC3 (configuration not stated),> 100
14,COc1ccc2c(c1C)C(=O)C(O)(CC=C(C)C)O2 (configuration not stated),> 100
15,Cc1cccc2c1[C@]13OC(C)[C@]4(C)CC5OC(=O)[C@@]1(C)[C@@H]5[C@]34C(=O)O2 (some centres not stated),> 100
16,CCN(CC)/C(Cl)=C(Cl)\C(=C1\Nc2ccc(OC)cc21)[N+](=O)[O-],> 100
